Results on 1 compound are retold here after patent US9725490B2, “ERAP1-derived peptide and use thereof” (TOKUSHIMA UNIVERSITY, priority 2011, dated 2017).

“Also recorded” adds a separate entry of the source.

What all share (assay type): cell-based, human
Experiment [1] concerns ERAP1 expression. The experiment is described as follows: ERAP1 expression, quantitative RT-PCR and Western, MCF-7. The conditions noted are these: 10 μM peptide, time course.
Experiment [2] concerns Akt, MAPK and ERα phosphorylation. Nature of the experiment: Phosphorylation of Akt, MAPK and ERα in tamoxifen-resistant MCF-7 cells. On the procedure:
FIG. 14 is a diagram illustrating the suppression effect of the ERAP1-peptide on tamoxifen-resistant MCF-7 cells. […] The tamoxifen-resistant MCF-7 cells were treated with the ERAP1-peptide in each concentration (0, 5 and 10 μM). Then, immediately, the cells were stimulated with 10 nM E2 for 24 hours.
MCF-7 cells and tamoxifen-resistant MCF-7 cells were seeded in 1×10^5/well in DMEM/F12 culture medium containing phenol red on a 24-well plate and stood in a CO2 incubator for 24 hours. Then, the culture medium was exchanged with DMEM/F12 culture medium containing 10% FBS, 1% penicillin/streptomycin and 1 μM tamoxifen, and not containing phenol red, and the cells were further pre-cultured for 24 hours. The supernatant was removed, and then 180 μl of […] ERAP1-peptide was added (final concentration: 10 μM), and subsequently 20 μl of 100 nM E2 was added (final concentration: 10 nM), and the mixture was reacted for 24 hours. The reaction solution was removed, and then 100 μl of SDS-sample buffer was added and the cells were lysed. The cells were subjected to boiling treatment at 95° C. for 5 minutes, and subjected to polyacrylic amide electrophoresis. Phosphorylations of Akt and MAPK were detected with anti-phosphorylation Akt (Ser473) (587F11) and anti-phosphorylation p44/42 MAP Kinase (Thr202/Tyr204) antibodies, and phosphorylation of ERα was detected with anti-phosphorylation ERα (Ser104/106), anti-phosphorylation ERα (Ser118), anti-phosphorylation ERα (Ser167), anti-phosphorylation ERα (Ser305) and anti-phosphorylation ERα (Tyr537) antibodies.

Experiment [3] concerns MCF-7 cells. The experiment is described as follows: Cell cycle FACS analysis, MCF-7. The following applies: 10 μM ERAP1-peptide and/or 10 nM tamoxifen, 10 nM E2 24 hours. As for the experimental part:
FIG. 6-2 is a diagram illustrating that ERAP1-peptide treatment suppresses ERα-dependent cell proliferation of breast cancer cell lines. […] MCF-7 cells were treated with 10 μM ERAP1-peptide or 10 μM tamoxifen. Then, immediately, the cells were stimulated with 10 nM E2 for 24 hours. After the immobilization, the cells were stained with propidium iodide, and analyzed by flow cytometry.
FIG. 19 is a diagram illustrating the results of FACS analysis showing the effects of concomitant use of the ERAP1-peptide and tamoxifen on the cell cycle.
The cells were fixed with cold 70% ethanol, and stained with 20 μg/ml propidium iodide (Sigma) and 1 mg/ml ribonuclease A (Sigma), and analyzed with FACSCalibur (B D, Franklin Lakes, N.J., USA). The cell cycle was evaluated using CellQuest software (BD).
MCF-7 cells were treated with 10 μM ERAP1-peptide and/or 10 nM tamoxifen. Then, immediately, the cells were stimulated with 10 nM E2 for 24 hours. After the immobilization, the cells were stained with propidium iodide, and analyzed by flow cytometry.
In general terms: A flow cytometer gives signals particle by particle.

The subject of experiment [4] is PHB2/REA phosphorylation. The experiment is described as follows: Phosphorylation of PHB2 bound to ERα, nuclear fraction. The following applies: MCF-7, 5 μM peptide, 1 μM E2 24 hours. As for the experimental part: FIG. 22 is a diagram illustrating that phosphorylation of PHB2 serine regulates the transcriptional activity of ERα. […] MCF-7 cells and HCC1395 cells were treated with 5 μM ERAP1-peptide. Then, immediately, the cells were stimulated with 1 μM E2 for 24 hours. Then, the nuclear fraction of each cell was immunoprecipitated with anti-ERα antibody. Furthermore, with respect to the obtained sample, immunoblotting analysis was performed using the antibodies shown in the figure and the phosphorylation antibody. […] COS-7 cells temporarily transfected with PHB2 (or PHB2 mutation vectors, S39A and S39G), ERα, ERE-luciferase vector, and each plasmid of pRL-TK as an internal standard were stimulated with 1 μM E2 for 48 hours.
MCF-7 cells and HCC1395 cells were treated with 5 μM ERAP1-peptide. Then, immediately the cells were stimulated with 1 μM E2 for 24 hours. Then, the nuclear fraction was isolated from the cells of each treatment. The nuclear fraction was precleaned at 4° C. for 3 hours using Normal IgG and rec-Protein G Sepharose 4B (Zymed, San Francisco, Calif., USA), and centrifuged, and then the supernatant was incubated in the presence of an anti-ERα antibody at 4° C. for 6 hours. Then, the supernatant was added with rec-Protein G Sepharose 4B and incubated at 4° C. for 1 hour to precipitate a antigen-antibody complex. […]

Experiment [5] has as its system ERα. The experiment is described as follows: ERα down-regulation and polyubiquitination in MCF-7 cells. As for the experimental part:
FIG. 4-5 is a diagram illustrating that the ERAP1-peptide promotes nuclear translocation of PHB2. […] Then, the protein level and the mRNA level for the expression of ERα were obtained by Western blotting (the upper panel: Protein) and semi-quantitative RT-PCR (the lower panel: mRNA), respectively. β-actin is a loading control for each. […] MCF-7 cells were treated with the ERAP1-peptide and/or E2 in the presence of 1 μM MG-132 for 1 hour. Then, the cell lysate was immunoprecipitated with anti-ERα antibody.
Down-regulation of ERα was evaluated by semi-quantitative reverse transcription PCR. Complete RNA was extracted using RNeasy Mini purification kit (Qiagen) from E2-treated cells in the presence or in the absence of the ERAP1 peptide, and reverse-transcribed into cDNA using Superscript II reverse transcriptase (Invitrogen), oligo dT primer (nvitrogen) and 25 mM dNTP Mixture (Invitrogen). mRNAs of ERα and β-actin were measured with GeneAmp PCR system (Applied Biosystems, Foster, Calif., USA). The primers are as described below: […]

For experiment [6], the system named is ERα. The experiment is described as follows: ERα down-regulation and polyubiquitination in KPL-3C cells. The following applies: in the presence of MG132. As for the experimental part:
FIG. 5 is a diagram illustrating the results of immunoblotting analysis by which the effects of the ERAP1-peptide in the down-regulation by polyubiquitination of ERα and proteasome decomposition were evaluated. The upper panel and the lower panel show the results obtained by the procedures described below. Namely, KPL-3C cells were treated with the ERAP1-peptide and/or 10 nM E2 for 1 hour. Then, the protein level and the mRNA level of ERα were examined by Western blotting and semi-quantitative RT-PCR. The results thereof are shown in the upper panel. β-actin is a loading control. Then KPL-3C cells were treated with the ERAP1-peptide and/or E2 in the presence of 1 μM MG-132 for 1 hour. Then, the cell lysate was immunoprecipitated with anti-ERα antibody. The results thereof are shown in the lower panel.

Consider `CSCC[C@H](NC(=O)[C@H](CCC(N)=O)NC(=O)[C@H](CCCNC(=N)N)NC(=O)[C@H](CCCNC(=N)N)NC(=O)[C@H](CCCNC(=N)N)NC(=O)[C@H](CCCNC(=N)N)NC(=O)[C@H](CCCNC(=N)N)NC(=O)[C@H](CCCNC(=N)N)NC(=O)[C@H](CCCNC(=N)N)NC(=O)[C@H](CCCNC(=N)N)NC(=O)[C@H](CCCNC(=N)N)NC(=O)[C@H](CCCNC(=N)N)NC(=O)[C@@H](N)CCCNC(=N)N)C(=O)N[C@@H](CC(C)C)C(=O)N[C@@H](CO)C(=O)N[C@@H](CC(=O)O)C(=O)N[C@@H](CC(C)C)C(=O)N[C@H](C(=O)N[C@@H](CC(C)C)C(=O)N[C@@H](CCC(N)=O)C(=O)N[C@@H](CC(C)C)C(=O)N[C@@H](CCCNC(=N)N)C(=O)N[C@@H](CCC(N)=O)C(=O)N[C@@H](CCCNC(=N)N)C(=O)O)[C@@H](C)O` [ERAP1-peptide], for which the “E2-dependent expression of ERAP1” value in experiment [1] is listed as “temporally suppressed”. In addition, in experiment [2] (Tam-R MCF-7, 10 μM peptide), the “phosphorylation of ERα” value is on record as “all phosphorylation of ERα was also decreased”. In experiment [2] (Tam-R MCF-7, tamoxifen alone or tamoxifen and E2), the “phosphorylations of Akt and MAPK” value is “phosphorylations of Akt and MAPK were remarkably decreased”. In experiment [3], the cell cycle result was “induced stop of the G1 phase; also recorded: increase of cells having stopped in the G1 phase”. The “phosphorylation of PHB2/REA bound to ERα in the nucleus” value in experiment [4] was “phosphorylations of the tyrosine and serine residues in the binding-recognized PHB2/REA were recognized”. Further, in experiment [5] (MCF-7), the “decrease in the protein level of ERα after estrogen” value is “the decrease thereof was suppressed”. For the same compound, in experiment [5] (MCF-7, E2, in the presence of MG132), the “polyubiquitination of ERα” value is listed as “polyubiquitination of ERα was inhibited”. Moreover, the “protein decrease and polyubiquitination of ERα” value in experiment [6] is “suppression for protein decrease of ERα was similarly recognized with inhibition of polyubiquitination”.
